Data from patent US7731994B2, “Pharmaceutical composition for protecting neurons comprising extract of lithospermum erythrothizon SIEB. ET. Zucc or acetylshikonin isolated therefrom as an effective ingredient” (Industry Academic Cooperation Foundation of Kyunghee …, priority 2007, dated 2010).
“Also recorded” adds a separate entry of the source.

Key:
[1] = tested on: rats with local brain ischemia induced by middle cerebral arterial occlusion; test: Defensive effect in rats with local brain ischemia induced by middle cerebral arterial occlusion (TTC staining, infarct volume); assay type: in vivo, Sprague-dawley male rats; settings: right after and 120 minutes after brain ischemia was induced, MCAo 120 min, 22 hours reperfusion
Description: Sprague-dawley male rats at 8 weeks having the weight of 280 g-300 g were purchased from Samtako, Inc., Korea. The rats were supplied with feed and water enough and adapted to the experimental environment for one week. Middle cerebral arterial occlusion was performed by intraluminal suture method based on the method of Zea longa, et al (Zea longa, et al., Stroke, 20, pp 84-91, 1989). Once middle cerebral artery of a rat is closed, blood flow is interrupted around middle cerebral arterial region so that oxygen and other energy source are exhausted, leading to cell death. In particular, tissue necrosis is observed in the center of the middle cerebral arterial region, striatum and temporal lobe, which is so called 'ischemic core'. Although not middle cerebral arterial region, the neighboring cells begin to be auto-destroyed, which is called '[…] penumbra'. 3 hours after blocking middle cerebral artery, necrosis starts and from 6 hours after blocking, cerebral ischemia is developed. The progress of cerebral ischemia continues for 24 hours after middle cerebral artery was closed for 120 minutes, and on the 3rd day, it reaches the highest degree. To measure the level of cerebral ischemia, it is necessary to measure correlated infarct volume (mm^3). […] Blood sugar and blood gas were measured from the blood sample. […]

[2] = tested on: BV-2 cells activated by lipopolysaccharide; test: NO generation (Griess reagent) in BV-2 cells activated by lipopolysaccharide; assay type: cell-based; settings: 100 ng/ml lipopolysaccharide
Description: (§1) To investigate the effect of acetylshikonin on the activation of microglia cells which are macrophages in brain, NO generation was measured in BV-2 cells and primary microglia cells which are neuroglia cells, activated by lipopolysaccharide according to the previously reported methods with slight modifications (Min Kim J, et al., Neuroreport, 14(15), pp1941-1944, 2003).
(§2) BV-2 cells (Lab. of Dr. Eui-Ju Choi, Korea University) were maintained in DMEM (Dulbeccols Modified Eagle Medium, Gibco-BRL, England) supplemented with 10% FBS (Fetal Bovine Serum, Gibco-BRL, England) and 1% penicillin-streptomycin (Gibco-BRL, England). To obtain the primary microglia cells, brain cells were separated from the brain extracted from Sprague-Dawley rat (Taconic, Japan) at less than 1 week from the birth and the cells were cultured for approximately 2 weeks in DMEM having the same composition with the one used for BV-2 cell culture in a 75T flask and then the primary microglia cells were recovered. BV-2 cells and the primary microglia cells were distributed into a 96 well plate at the concentration of […] and then cultured in a 37° C., 5% CO2 incubator for overnight. […] OD570 was measured by Elyzerleader (Moleulat Device, USA) and the concentration was calculated by considering the level of sodium nitrite as standard.

[3] = tested on: primary microglia cells activated by lipopolysaccharide; test: NO generation (Griess reagent) in primary microglia cells activated by lipopolysaccharide; assay type: cell-based, Sprague-Dawley rat; settings: 100 ng/ml lipopolysaccharide
Description: as §1, §2

iNOS mRNA = test: RT-PCR of iNOS mRNA expression in primary microglia cells activated by lipopolysaccharide; assay type: cell-based, Sprague-Dawley rat; settings: 100 ng/ml lipopolysaccharide co-treated with 0.1, 1 uM, 24 hours
Description: To investigate the inhibition of iNOS mRNA expression by acetylshikonin, […] was performed.
The primary microglia cells cultured in DMEM supplemented with 10% FBS and 1% penicillin-streptomycin were distributed in a 6 well plate at the concentration of 4×10^6 cells/well, followed by culture for 24 hours. 100 ng/ml of lipopolysaccharide and 0.1, 1 uM of acetylshikonin were co-treated thereto, followed by activation of the cells for 24 hours. The control group was not treated with lipopolysaccaride. After 24 hours of activation, the culture medium was discarded and the cells were washed with cold PBS ([…]), to which trypsin was treated. 1 ml of PBS containing the cells was obtained, followed by centrifugation at 12,000 rpm for 2 minutes to separate the cells. The cells were lysed in RNA separation solution (easyblue) to extract RNA from the cells, followed by centrifugation at 12,000 rpm for 15 minutes. After treating chloroform, centrifugation was performed again at 13,000 rpm for 25 minutes and the supernatant was obtained and washed with isopropanol to extract RNA. cDNA was synthesized using 5 ug of the RNA and 5 μmol of primer at 45° C., followed by PCR. […]

IL-1beta mRNA = test: RT-PCR of IL-1beta mRNA expression in primary microglia cells activated by lipopolysaccharide; assay type: cell-based, Sprague-Dawley rat; settings: 100 ng/ml lipopolysaccharide co-treated with 0.1, 1 uM, 24 hours
TNF-alpha mRNA = test: RT-PCR of TNF-alpha mRNA expression in primary microglia cells activated by lipopolysaccharide; assay type: cell-based, Sprague-Dawley rat; settings: 100 ng/ml lipopolysaccharide co-treated with 0.1, 1 uM, 24 hours
iNOS = test: Western blot of iNOS expression in primary microglia cells activated by lipopolysaccharide; assay type: cell-based, Sprague-Dawley rat; settings: 100 ng/ml lipopolysaccharide co-treated with 0.1, 1 uM, 24 hours
Description: (§3) Western blot analysis was performed to investigate the inhibition of iNOS expression by acetylshikonin.
(§4) The primary microglia cells cultured in DMEM supplemented with 10% FBS and 1% penicillin-streptomycin were distributed in a 6 well plate at the concentration of 4×10^6 cells/well, followed by culture for 24 hours. 100 ng/ml of lipopolysaccharide and 0.1, 1 uM of acetylshikonin were co-treated thereto, followed by activation of the cells for 24 hours. The control group was not treated with lipopolysaccaride. After 24 hours of activation, the culture medium was discarded and the cells were washed with cold PBS, to which trypsin was treated. 1 ml of PBS containing the cells was obtained, followed by centrifugation at 12,000 rpm for 2 minutes to separate the cells. The cells were loaded in 50 μl of triple lysis buffer to decompose all the cell membranes and then centrifugation was performed at 12,000 rpm for 30 minutes to obtain supernatant, a protein layer. The obtained supernatant was diluted and protein was quantified by Bradford method. After quantification, an equal amount of protein proceeded onto 8% polyacrylamide gel electrophoresis. The separated proteins from the electrophoresis were transferred onto Hybond ECL nitrocellulose membrane, leading to the reaction with primary and secondary antibodies of iNOS and IL-1beta. ECL examination was performed.

IL-1beta = test: Western blot of IL-1beta expression in primary microglia cells activated by lipopolysaccharide; assay type: cell-based, Sprague-Dawley rat; settings: 100 ng/ml lipopolysaccharide co-treated with 0.1, 1 uM, 24 hours
Description: as §3, §4

[4] = 24 hours, 0.1, 0.5 and 1 uM tested, inhibition stated at 1 uM
[5] = 24 hours, 0.5 mM positive control

Structure (SMILES) | protective effect on brain tissue damage, compared with the control ([1]; 1 mg/kg orally) [%] | protective effect on brain tissue damage, compared with the control ([1]; 3 mg/kg orally) [%] | NO generation [2, 4] | NO generation [3, 4] | expression of mRNA of iNOS (iNOS mRNA) | expression of mRNA of IL-1beta (IL-1beta mRNA) | expression of mRNA of TNF-alpha (TNF-alpha mRNA) | expression of iNOS (protein) (iNOS) | expression of IL-1beta (protein) (IL-1beta) | NO generation [2, 5] | NO generation [3, 5]
CC(=O)O[C@H](CC=C(C)C)C1=CC(=O)c2c(O)ccc(O)c2C1=O [acetylshikonin] | ~46.88 | 68.75 | inhibited the generation of nitric oxide dose dependently; also recorded: inhibition of NO generation | inhibited the generation of nitric oxide dose dependently; also recorded: inhibition of NO generation | inhibited | inhibited | inhibited | inhibited | inhibited | – | –
CNC(=N)NCCC[C@H](N)C(=O)O [positive control, N super(G)-monomethyl-L-arginine, reference compound] | – | – | – | – | – | – | – | – | – | inhibition of NO generation | inhibition of NO generation
